Measurements published in patent US6613308B2, “Pulmonary delivery in treating disorders of the central nervous system” (Advanced Inhalation Research, Inc., priority 2000, dated 2003).

Legend:
PZT-induced seizures = experiment: PZT-induced seizures; format: in vivo, rats; conditions: for Duration of Seizure / Minutes to Seizure Onset: mean
Method: The pharmacodynamic effects of a pulmonary versus oral benzodiazepine-type drug, alprazolam, were evaluated using a standard pre-clinical test of anxiolytic drug action. In this test, the chemical convulsant pentylenetetrazol (PZT), which is known to produce well characterized seizures in rodents, was administered to rats. The test was selected based on its sensitivity to a wide range of benzodiazapines and to the fact that the relative potency of benzodiazapines in blocking PZT-induced seizures is believed to be similar to the magnitude of their anti-anxiety effects in humans. The ability of alprazolam to block PZT-induced seizures was used as a measure of the pharmacodynamic effects of alprazolm.
Determinations of the […] activity of alprazolam were made following oral gavage, or insufflation directly into the lungs of rats. Alprazolam (Sigma, St. Louis, Mo. was administered via aerodynamically light particles which included 10% alprazolam, 20% sodium citrate, 10% calcium chloride and 60% DPPC. For oral delivery, alprazolam was suspended in light corn syrup and administered via gavage. For pulmonary delivery, an insufflation technique was used. Animals were briefly anesthetized with isoflurane (1-2%) and a laryngoscope was used to visualize the epiglottis and the blunt-tip insufflation device (PennCentury Insufflation powder delivery device) was inserted into the airway. A bolus of air (3 cc), from an attached syringe, was used to deliver the pre-loaded powder from the chamber of the device into the animals' lungs. The doses for pulmonary delivery were 0 (blank particles that included 20% sodium citrate, 10% calcium chloride and 70% DPPC), 0.088, 0.175, or 0.35 mgs total alprazolam, and the doses for oral delivery were 0, 0.088, 0.175, 0.35, 0.70, 1.75, or 3.50 mgs total alprazolam. These doses were chosen to encompass the range of effective and ineffective oral doses. Accordingly, any potential benefits of pulmonary delivery could be directly compared to the oral dose response curve for alprazolam.
For both oral and pulmonary delivery, alprazolam was administered either 10 or 30 minutes prior to PZT, obtained from Sigma, St. Louis, Mo., (60 mg/kg given i.p). To control for potential interactions between alprazolam and isoflurane, all animals receiving oral alprazolam also received isoflurane immediately following dosing as described above. For all animals, the number of seizures as well as the time to seizure onset and seizure duration was recorded for 45 minutes after administration of PZT.

[1] = 14C levels in plasma, brain and peripheral organs after 14C-carboplatin IV or pulmonary administration; format: in vivo, rat; conditions: 10 minutes; for Plasma Levels of 14C: 100 μCi/8 mg
Method: Blood, brain and peripheral organ levels of ^14C were determined following administration of ^14C-Carboplatin via either IV or pulmonary administration. A total of 100 μCi of radiolabeled carboplatin was mixed with unlabelled carboplatin to provide a total drug concentration of 8 mg/rat. All animals were anesthetized using ketamine. For IV administration, carboplatin was administered via a previously placed femoral cannula. For pulmonary administration, a 24 gauge catheter was placed within the trachea and the carboplatin was administered using a Harvard ventilator over a 3-5 second period using a tidal volume of 1 ml and 100 strokes/minutes. Blood samples were taken at 10 minutes post drug administration (N=6 per time point for each group). Brains were removed and dissected into various regions including the olfactory, frontal, and occipital cortices, the hippocampus, striatum, and cerebellum. Peripheral organs included the kidneys, spleen, heart, testes, and muscle. All samples were then processed for determinations of ^14C levels using scintillation.
Absolute plasma levels of ^14C were higher following IV administration. […] This point is clearer when the ratio of brain to blood ^14C levels was calculated. […] Absolute levels of ^14C in peripheral tissue was also lower following pulmonary administration (92% lower relative to IV). In contrast to the large differences in selectivity seen in the brain, the relative peripheral selectivity (derived from dividing the levels of radioactivity in peripheral organs by that in the blood) was only 47% higher in the pulmonary group.

[2] = oral, 10 minutes prior to PZT, 0.35 mgs
[3] = oral, 10 minutes prior to PZT, 0.70 mgs
[4] = oral, 10 minutes prior to PZT, 1.75 mgs
[5] = oral, 10 minutes prior to PZT, 3.50 mgs
[6] = oral, 30 minutes prior to PZT, 0.088 mgs
[7] = oral, 30 minutes prior to PZT, 0.175 mgs
[8] = oral, 30 minutes prior to PZT, 0.35 mgs
[9] = pulmonary, 10 minutes prior to PZT, 0.088 mgs
[10] = pulmonary, 10 minutes prior to PZT, 0.175 mgs
[11] = pulmonary, 10 minutes prior to PZT, 0.35 mgs
[12] = pulmonary, 10 minutes prior to PZT, 0.35 mgs, listed as alprazolam
[13] = pulmonary, 30 minutes prior to PZT, 0.088 mgs
[14] = pulmonary, 30 minutes prior to PZT, 0.175 mgs
[15] = pulmonary, 30 minutes prior to PZT, 0.35 mgs

For `Cc1nnc2n1-c1ccc(Cl)cc1C(c1ccccc1)=NC2` [Alprazolam, alprazolam], the “pulmonary dose lower than maximally effective oral dose for comparable decrease in seizure duration” value (PZT-induced seizures; 10 minutes prior to PZT, 0.088 vs 3.50 mgs) was roughly 40 fold, the “oral dose relative to pulmonary dose for comparable time to seizure onset” value (PZT-induced seizures; 10 minutes prior to PZT, 0.35 vs 3.50 mgs) was 10 times and the “oral dose required relative to pulmonary dose for comparable seizure suppression” value (PZT-induced seizures; 10 minutes prior to PZT, 3.50 vs 0.35 mgs) was “approximately 10 times”. The “lowest oral dose that significantly increases time to seizure onset” value (PZT-induced seizures; oral, 10 minutes prior to PZT) was 1.75 mgs, the “maximally effective oral dose on seizure duration” value (PZT-induced seizures; oral, 10 minutes prior to PZT) was 3.50 mgs and the “Animals With Seizures” value (PZT-induced seizures; [2]) was 13/15. For the same compound, the “Animals With Seizures (%)” value (PZT-induced seizures; [2]) was “(87%)”, the “Duration of Seizure” value (PZT-induced seizures; [2]) was 88.0 s and the “Minutes to Seizure Onset” value (PZT-induced seizures; [2]) was 11.49 min. The “Animals With Seizures” value (PZT-induced seizures; [3]) was 13/15, the “Animals With Seizures (%)” value (PZT-induced seizures; [3]) was “(87%)” and the “Duration of Seizure” value (PZT-induced seizures; [3]) was 62.07 s. The “Minutes to Seizure Onset” value (PZT-induced seizures; [3]) was 9.24 min, the “Animals With Seizures” value (PZT-induced seizures; [4]) was 7/15 and the “Animals With Seizures (%)” value (PZT-induced seizures; [4]) was “(47%)”. The “Duration of Seizure” value (PZT-induced seizures; [4]) was 14.47 s, the “Minutes to Seizure Onset” value (PZT-induced seizures; [4]) was 29.03 min and the “Animals With Seizures” value (PZT-induced seizures; [5]) was 2/14. For the same compound, the “Animals With Seizures (%)” value (PZT-induced seizures; [5]) was “(14%)”, the “Duration of Seizure” value (PZT-induced seizures; [5]) was 5.40 s and the “Minutes to Seizure Onset” value (PZT-induced seizures; [5]) was 43.37 min. For the same compound, the “Animals With Seizures” value (PZT-induced seizures; [6]) was 11/15, the “Animals With Seizures (%)” value (PZT-induced seizures; [6]) was “(73%)” and the “Duration of Seizure” value (PZT-induced seizures; [6]) was 46.0 s. The “Minutes to Seizure Onset” value (PZT-induced seizures; [6]) was 18.38 min, the “Animals With Seizures” value (PZT-induced seizures; [7]) was 7/15 and the “Animals With Seizures (%)” value (PZT-induced seizures; [7]) was “(47%)”. The “Duration of Seizure” value (PZT-induced seizures; [7]) was 15.0 s, the “Minutes to Seizure Onset” value (PZT-induced seizures; [7]) was 33.10 min and the “Animals With Seizures” value (PZT-induced seizures; [8]) was 4/15. The “Animals With Seizures (%)” value (PZT-induced seizures; [8]) was “(27%)”, the “Animals With Seizures (%)” value (PZT-induced seizures; oral, 30 minutes prior to PZT, 0.35 mgs, listed as alprazolam) was 27% and the “Duration of Seizure” value (PZT-induced seizures; [8]) was 19.0 s. For the same compound, the “Minutes to Seizure Onset” value (PZT-induced seizures; [8]) was 37.58 min, the “Animals With Seizures” value (PZT-induced seizures; [9]) was 5/15 and the “Animals With Seizures (%)” value (PZT-induced seizures; [9]) was “(33%)”. The “Animals With Seizures (%)” value (PZT-induced seizures; pulmonary, 10 minutes prior to PZT, 0.088 mgs, listed as alprazolam) was 33%, the “Duration of Seizure” value (PZT-induced seizures; [9]) was 7.0 s and the “Minutes to Seizure Onset” value (PZT-induced seizures; [9]) was 36.71 min. For the same compound, the “Animals With Seizures” value (PZT-induced seizures; [10]) was 3/15, the “Animals With Seizures (%)” value (PZT-induced seizures; [10]) was “(20%)” and the “Duration of Seizure” value (PZT-induced seizures; [10]) was 8.0 s. The “Minutes to Seizure Onset” value (PZT-induced seizures; [10]) was 38.61 min, the “Animals With Seizures” value (PZT-induced seizures; [11]) was 2/15 and the “Animals With Seizures (%)” value (PZT-induced seizures; [11]) was “(13%)”. For the same compound, the “Animals With Seizures (%)” value (PZT-induced seizures; [12]) was 13%, the “Duration of Seizure” value (PZT-induced seizures; [11]) was 4.0 s and the “Minutes to Seizure Onset” value (PZT-induced seizures; [11]) was 42.28 min. For the same compound, the “Minutes to Seizure Onset” value (PZT-induced seizures; [12]) was greater than 42 min, the “Animals With Seizures” value (PZT-induced seizures; [13]) was 9/15 and the “Animals With Seizures (%)” value (PZT-induced seizures; [13]) was “(60%)”. The “Duration of Seizure” value (PZT-induced seizures; [13]) was 82.67 s, the “Minutes to Seizure Onset” value (PZT-induced seizures; [13]) was 18.47 min and the “Animals With Seizures” value (PZT-induced seizures; [14]) was 5/15. The “Animals With Seizures (%)” value (PZT-induced seizures; [14]) was “(33%)”, the “Duration of Seizure” value (PZT-induced seizures; [14]) was 16.07 s and the “Minutes to Seizure Onset” value (PZT-induced seizures; [14]) was 34.05 min. For the same compound, the “Animals With Seizures” value (PZT-induced seizures; [15]) was 2/15, the “Animals With Seizures (%)” value (PZT-induced seizures; [15]) was “(13%)” and the “Duration of Seizure” value (PZT-induced seizures; [15]) was 2.69 s. The “Minutes to Seizure Onset” value (PZT-induced seizures; [15]) was 41.98 min.

With `N.N.O=C([O-])C1(C(=O)[O-])CCC1.[Pt+2]` [carboplatin] the “Absolute Brain Levels” value ([1]; IV) was 29.47 nCi/gram, the “Absolute Tissue Levels (Peripheral Organs), excludes kidney” value ([1]; IV) was 0.03 and the “Relative Brain Selectivity (Brain/Blood)” value ([1]; IV) was 0.03. The “Relative Peripheral Selectivity (Peripheral/Blood), excludes kidney” value ([1]; IV) was 0.44, the “Plasma Levels of 14C” value ([1]; IV) was 994.348 and the “Absolute Tissue Levels (Peripheral Organs) (% Difference)” value ([1]; Lung vs IV) was “+2833%”. For the same compound, the “Plasma Levels (% Difference)” value ([1]; Lung vs IV) was −89.72%, the “Absolute Brain Levels” value ([1]; Lung) was 27.29 nCi/gram and the “Absolute Tissue Levels (Peripheral Organs), excludes kidney” value ([1]; Lung) was 0.88. For the same compound, the “Relative Brain Selectivity (Brain/Blood)” value ([1]; Lung) was 0.88, the “Relative Peripheral Selectivity (Peripheral/Blood), excludes kidney” value ([1]; Lung) was 0.65 and the “Plasma Levels of 14C” value ([1]; Lung) was 102.215. The “Absolute levels of 14C in peripheral tissue, lower relative to IV” value ([1]; pulmonary vs IV) was 92%.
